Structures can show the parent of a compound that is named as a salt.
Key:
[1] = target: T1, human-type OT7T022 (Homo sapiens, UniProt Q9GZQ6); assay: Binding inhibiting activity using human-type OT7T022-expressing CHO cell; conditions: 125I-labeled Y-RFRP-3 100 pM, membrane fraction, room temperature 1.5 hours; read-out: IC50 value (binding inhibiting rate)
T1 construct: expressed in transfected cells; host or cells: CHO cells (membrane fraction)
Description: Assessment of Binding Inhibiting Activity of Test Compound Using Human-Type OT7T022-Expressing CHO Cell
Twenty μm of a peptide (Y-RFRP-3) (sequence: Tyr-Val-Pro-Asn-Leu-Pro-Gln-Arg-Phe-amide) (0.1 mM) in which a Tyr residue had been added to a N-terminus of hRFRP-3-8 (sequence: Val-Pro-Asn-Leu-Pro-Gln-Arg-Phe-amide) having binding inhibiting activity equivalent to that of endogenous human-type RFRP-3 (hRFRP-3-28) for human-type OT7T022-expressing CHO cell and 10 μl of distilled water were mixed, 20 μl of a lactoperoxidase solution (Sigma, prepared using 0.1 M HEPES-NaOH, pH 7.0 in 10 μg/mL), 10 μl of Iodine-125 (Amersham, IMS-30, 74 MBq), and 20 μl of 0.005% hydrogen peroxide (Wako Pure Chemical Industries, Ltd.) were successively mixed therein, the mixture was allowed to stand at room temperature for 10 minutes, 600 μl of 0.1% TFA-water was added, this was separated by reverse phase HPLC, a peak of the labeled form was collected, an equivalent amount of a buffer for a binding test (50 mM TrisHCl (pH 7.5), 0.1% BSA, 5 mM EDTA, 0.5 mM PMSF, 20 μg/mL leupeptin, 0.1 μg/mL pepstatin A, […]) was added, and this was immediately stored on ice. A part thereof was 1/100 diluted, radioactivity was measured with a γ-counter, and the remaining authentic product was distributed, which was stored at −30° C.
To a 96-well microplate were added 1 μg of a membrane fraction, a compound and Y-RFRP-3 labeled with ^125I, which had been diluted with a reaction buffer (50 mM Tris-HCl, 5 mM EDTA, 0.1% BSA, 0.5 mM PMSF, 20 μg/ml leupeptin, 0.1 μg/ml pepstatin A, 4 μg/ml E-64, 10 mM MgCl2, pH 7.5), to 100 pM to react them at room temperature for 1.5 hours. For measuring non-specific binding, non-labeled Y-RFRP-3 was further added to […]. Then, a membrane fraction was transferred to a unifilter GF/C (Perkin Elmer) by filtering the reaction mixture using a cell harvester (Perkin Elmer), and this was washed with a cooled 50 mM Tris buffer (pH 7.5) five times. The filter was dried, Microsinti (Packard) was added to the filter, and radioactivity was measured with Topcount (Packard).
A binding inhibiting rate (IC50 value) of a test compound is shown in [Table 1].

[2] = target: T1, human-type OT7T022; assay: Antagonist activity in cAMP production inhibiting test system using human-type OT7T022-expressing CHO cell; type: cell-based; conditions: agonist human-type RFRP-3-8 20 nM + forskolin 2 μM, intracellular cAMP amount
Description: Test of Antagonist Activity of Compound in Camp Production Inhibiting Test System Using Human-Type OT7T022-Expressing CHO Cell
Antagonist activity of a test compound was measured in an intracellular cAMP production inhibiting test system of a CHO cell expressing human-type OT7T022. In the cAMP production inhibiting test, as an assay buffer, a Hanks' balanced salt solution (Gibco) to which 20 mM HEPES pH 7.4, 0.1% bovine serum albumin, and 0.2 mM 3-isobutyl-1-methylxanthine (Sigma) had been added, was used. A sample compound was adjusted with an assay buffer so that the final concentration became 10^−5M, 10^−6M, 10^−7M, 10^−8M, or 10^−10M. An agonist: human-type RFRP-3-8 (Val-Pro-Asn-Leu-Pro-Gln-Arg-Phe-amide) was diluted with an assay buffer obtained by adding 4 μM (final concentration 2 μM) forscoline to 40 nM (final concentration 20 nM). A human-type OT7T022-expressing CHO cell was passaged on a 96-well plate at 4×10^4/well, and cultured at 37° C., 5% CO2 and 95% air for one day. The plate which had been cultured for one day was washed with an assay buffer (150 μl) two times and, after 30 minutes, this was cultured for 30 minutes at 37° C. and 100% air. […] An intracellular cAMP amount was measured according to a protocol of the present kit using cAMP-Screen™ system (ABI). […]

[3] = target: T2, rat-type OT7T022 (Rattus norvegicus, UniProt Q9EP86); assay: Binding inhibiting activity using rat-type OT7T022-expressing CHO cell membrane fraction; conditions: iodine-labeled Y-RFRP-3 100 pM, membrane fraction 0.75 μg/well
T2 construct: expressed in transfected cells; host or cells: CHO cells (membrane fraction)
T2 sequence (Q9EP86 whole entry): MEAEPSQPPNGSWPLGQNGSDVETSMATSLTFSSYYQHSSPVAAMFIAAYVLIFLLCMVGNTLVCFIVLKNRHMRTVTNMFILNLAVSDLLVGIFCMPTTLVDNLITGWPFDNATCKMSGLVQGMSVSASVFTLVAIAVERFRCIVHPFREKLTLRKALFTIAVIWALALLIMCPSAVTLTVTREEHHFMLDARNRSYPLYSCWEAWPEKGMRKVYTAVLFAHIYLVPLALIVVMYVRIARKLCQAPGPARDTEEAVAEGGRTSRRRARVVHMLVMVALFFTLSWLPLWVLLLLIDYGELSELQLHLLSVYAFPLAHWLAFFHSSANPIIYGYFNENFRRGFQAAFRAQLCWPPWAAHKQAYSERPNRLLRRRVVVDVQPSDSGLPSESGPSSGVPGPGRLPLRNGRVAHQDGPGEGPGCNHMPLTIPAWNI
Description: Assessment of Binding Inhibiting Activity of Test Compound Using Rat-Type OT7T022-Expressing CHO Cell
A flask in which a rat-type OT7T022-expressing CHO cell had been cultured was washed with 5 mM EDTA/PBS, cells were peeled with 5 mM EDTA/PBS, and cells were recovered by centrifugation, suspended in 25 mL of a buffer for preparing a membrane fraction (50 mM Tris-HCl, pH 7.5, 5 mM EDTA, 0.5 mM PMSF (manufactured by Wako Pure Chemical Industries, Ltd.), […] (manufactured by Peptide Laboratory), 0.1 μg/mL pepstatin A (manufactured by Peptide Laboratory), 4 μg/mL E-64 (manufactured by Peptide Laboratory)), and homogenized on an ice using Polytron (12,000 rpm, 15 seconds×3 times). This was centrifuged in a high speed cooling centrifuge at 4° C. and 1,000 g for 10 minutes, and the supernatant was recovered. 25 mL of a buffer for preparing a membrane fraction was added to precipitates, and the supernatant was recovered by the same procedure. These supernatants were combined, subjected to a cell strainer, dispensed into tubes for a supercentrifuge, and centrifuged at 4° C. and 100,000 g for 1 hour. The pellet was suspended in a small amount of a buffer for preparing a membrane fraction, this was suspended using a Teflon (registered trade mark) homogenizer, a protein amount was measured using a part, and the remaining was dispensed, and stored at −80° C.
Using an assay buffer (50 mM Tris-HCl, pH 7.5, 5 mM EDTA, 0.5 mM PMSF, 20 μg/mL leupeptin, 0.1 μg/mL pepstatin A, 4 μg/mL E-64, 0.1% bovine serum albumin, 10 mM MgCl2), a membrane fraction of a rat-type OT7T022-expressing CHO cell was diluted to the final concentration of 0.75 μg/well, and iodine-labeled Y-RFRP-3 was diluted to the final concentration of 100 pM. Regarding a sample compound, a 10^−2M or 10^−3M stock solution was diluted with an assay buffer so that the final concentration became 10^−5M, 10^−6M, 10^−7M, 10^−8M, 10^−9M, 10^−10M or 10^−11M. For non-specific binding, hRFRP-3-8 having the final concentration of 10^−5M was prepared. Using a polypropylene 96-well plate, a prepared sample solution, a non-specific binding solution, and 50 μl of an assay buffer for total binding were dispensed, 25 μl of an iodine-labeled form diluent was added, the mixture was stirred, 25 μl of a rat-type OT7T022-expressing CHO cell membrane fraction solution was dispensed, and this was stirred, and incubated at room temperature for 1.5 hours. This was transferred to a unifilter (Perkin Elmer) pre-wetted with a washing buffer (50 mM Tris-HCl, pH 7.5) using a harvester for a 96-well plate (Packard), and this was washed with a washing buffer six times, and sufficiently dried. 50 μl of Microscinti O (Packard) was dispensed, radioactivity was measured with Top Count (Packard), and data were analyzed in a triplicate manner. Binding inhibiting activity (IC50 value) of a test compound for rat-type OT7T022 is shown in [Table 3].

T1 sequence (Q9GZQ6 whole entry): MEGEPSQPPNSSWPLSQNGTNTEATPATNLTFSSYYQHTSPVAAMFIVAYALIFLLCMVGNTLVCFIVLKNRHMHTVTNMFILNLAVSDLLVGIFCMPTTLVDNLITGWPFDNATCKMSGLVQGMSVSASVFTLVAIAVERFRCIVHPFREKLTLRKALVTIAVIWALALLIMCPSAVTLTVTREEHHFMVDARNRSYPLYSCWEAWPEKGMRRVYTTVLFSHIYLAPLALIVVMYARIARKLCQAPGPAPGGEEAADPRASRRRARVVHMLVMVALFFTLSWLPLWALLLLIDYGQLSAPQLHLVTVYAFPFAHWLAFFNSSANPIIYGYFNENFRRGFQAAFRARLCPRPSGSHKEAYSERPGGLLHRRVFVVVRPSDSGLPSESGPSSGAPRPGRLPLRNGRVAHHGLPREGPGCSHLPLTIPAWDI

IC50 [1]: < 1 µM
IC50 [2]: < 1 µM
IC50 [3]: < 1 µM
SMILES: COc1c(OCCCNCCCc2ccccc2)cccc1[C@H]1O[C@H](CC(=O)NCc2ccccc2F)C(=O)N(CC(C)(C)C)c2ccc(Cl)cc21 (relative stereo) [Example 3, 2-(3,5-trans-7-Chloro-1-(2,2-dimethylpropyl)-5-{2-methoxy-3-[3-(3-phenylpropylamino)propoxy]phenyl}-2-oxo-1,2,3,5-tetrahydro-4,1-benzoxazepin-3-yl)-N-(2-fluorobenzyl)acetamide hydrochloride]
